The text below walks through data of patent publication US11083714B2, “Selective anti-cancer agent effective for prevention and treatment” (Molecular International Research, Inc., priority 2018, dated 2021).

Data set [1] has as its system RPWE-1. The data set can be described thus: Cell Proliferation (anti-cancer), RPWE-1. The format is cell-based, human. How it is done:
The primary goal of synthesizing de-ethylflavopereirine (compound 13-9-1) was to generate a different compound that still retains the anti-cancer cell activity of flavopereirine (compound 13-7-2). Comparison of the effects of the two compounds on proliferation of a variety of cancer cells confirmed that this goal was achieved. For example, the effect of de-ethylflavopereirine on two human breast cancer cell lines and two human prostate cancer cell lines were analyzed.

The nature of data set [2]: Toxicity in mice, intravenous administration. Particulars: 20 mg/kg and 40 mg/kg. The format is in vivo. As for the experimental part: At 20 mg/kg and 40 mg/kg doses, intravenous administration of compound 13-9-1 in mice was well-tolerated. The 20 mg/kg dose provides sufficient serum concentration for the compound to exert its anti-tumor effect.
(§1) Oral administration was chosen for the mouse experiments because administration is simplified by avoiding the need for tail vein injections.

Data set [3] deals with PANC-1 cells. Description: Tumor formation and growth after inoculation of pretreated PANC-1 cells (FIG. 26). The data set is classed as in vivo, mice. How it is done: FIG. 26. Effect of de-ethylflavopereirine on pancreatic cancer formation and growth. […] In the control group (top line of left graph), 86.67% (13/15) of the untreated mice formed tumors. Compound 13-9-1 (10 μM) decreased the rate to 80% (4/5); there was no effect on the time of tumor formation (bottom line of left graph). […] In the control group (top line of left graph), 80% (12/15) of the untreated mice formed tumors. Compound 13-9-1 (10 μM) decreased the tumor formation rate to 60% (3/5); this indicated reduction in tumor formation initiated by pancreatic cancer stem cells (bottom line of left graph). […] In FIG. 26C, after 2×10^4 PANC-1 cells were inoculated, 20% of the mice formed tumors in both the control group (3/15) and the treated group (1/5) at 38 days of observation.
In vivo, cancer stem cells are the primary source of tumor formation and growth. Thus, the rates of tumor formation and growth are indicators of cancer stem cell activity. When animals are inoculated with limited numbers of cancer cells, rates of tumor formation and growth can be accurately measured. It can then be determined whether a prospective agent slows the formation and growth rates of tumors, which is an indication of whether it acts against cancer stem cells. PANC-1 cancer cells were grown in suspension and pretreated with de-ethylflavopereirine at 10 μM concentration before inoculation into mice. As a negative control, PANC-1 cancer cells were not pretreated with the compound. Following inoculation, the rates of tumor formation and growth were measured. • 1) After 10^6 PANC-1 cells were inoculated, tumors formed in 87% of the mice in the control group and 80% of the mice in the treated group. […] De-ethylflavopereirine reduced tumor formation rate to 60%, indicating inhibition of pancreatic cancer stem cells. […] De-Ethylflavopereirine Suppresses PANC-1 Tumor Formation In Vivo: Anti-Cancer Stem Cell Activity

A short description of data set [4]: Plasma concentrations after intravenous or oral administration. The data set is classed as in vivo, mice. How it is done: FIG. 15. Plasma concentrations of de-ethylflavopereirine following intravenous or oral administration: intravenous at 20 mg/kg (lozenges) having a peak at approximately 2 hours, oral at 100 mg/kg (squares), or oral at 200 mg/kg (triangles) having a peak at approximately 4 hours.
as §1

Data set [5] has as its system PANC-1 cells. The data set can be described thus: CD24/CD44/EpCam triple positive cells by flow cytometry. The format is cell-based. Particulars: 2.5, 5, 10 μM. As for the experimental part:
FIG. 24. De-ethylflavopereirine decreased the percentage of cancer stem cells in a pancreatic cancer cell population (24 hours). The panels show CD44 (PE-Cy7) positive and EpCam (APC) positive cells in the CD24 (PE) gate at concentrations of 0 μM (upper left), 2.5 μM (upper right), 5 μM (lower left), and 10 μM (lower right) de-ethylflavopereirine after 24 hr. “Q1”=CD24^+/CD44^+, “Triple+”=CD24^+/CD44^+/EpCam^+, “Q3”=CD24^+, and “Q4”=CD24^+/EpCam^+.
FIG. 25. De-ethylflavopereirine decreased the percentage of cancer stem cells in a pancreatic cancer cell population (48 hours). The panels show CD44 (PE-Cy7) positive and EpCam (APC) positive cells in the CD24 (PE) gate at concentrations of 0 μM (upper left), 2.5 μM (upper right), 5 μM (lower left), and 10 μM (lower right) de-ethylflavopereirine after 48 hr. “Q1”=CD24^+/CD44^+, “Triple+”=CD24^+/CD44^+/EpCam^+, “Q3”=CD24^+, and “Q4”=CD24^+/EpCam^+.
Cancer stem cells can be identified by specific cell-surface markers. A combination of three markers CD24, CD44, and EpCam is used for detection of pancreatic cancer stem cells. These markers can be labeled by different fluorophores and detected simultaneously by flow cytometry. Triple positive cells (i.e., cells that express all three markers) are regarded as pancreatic cancer stem cells. De-ethylflavopereirine reduced the percentage of pancreatic cancer stem cells in pancreatic cancer cell populations. PANC-1 cells were treated with 2.5 μM, 5.0 μM, and 10 μM concentrations of the compound for 24 hours or 48 hours. Triple positive cells were identified in quadrant Q2 (“Triple+”) of the flow cytometry output.
In general terms: Flow cytometry measures light scatter and fluorescence of single cells or particles in a stream.

Data set [6] has as its system MIA PaCa, PANC-1, BxPc, AsPc. The data set can be described thus: MTT cell viability, pancreatic cancer cell lines. The format is cell-based, human. The settings on record: 48 hr. How it is done:
FIG. 8. Dose-response curves for cell viability of human pancreatic cancer cell lines MIA PaCa (squares), PANC-1 (lozenges), BxPc (crosses), and AsPc (triangles) exposed to de-ethylflavopereirine. Cells were cultured in the presence of increasing concentrations of the compound for 48 hr and cell viability was determined by MTT assay. MRC-5 (asterisks) was used as a control.
De-ethylflavopereirine was tested for its activity against ovarian, pancreatic, brain, and colon cancer cell lines. […] Cytotoxicity is assayed by reducing a yellow tetrazolium dye, 3-(4,5-dimethylthiazol-2-yl)-2,5-diphenyltetrazolium bromide (MTT), to insoluble purple formazan. The MTT assay is a colorimetric assay for determining the number of viable cells.

[7] abbreviates: 1×10^6 PANC-1 cells pretreated at 10 μM.
The mark [8] stands for this setting: 2×10^5 PANC-1 cells pretreated at 10 μM.

As usually defined, the IC50 is the point on the concentration scale where inhibition reaches its midpoint.

As to `c1ccc2c(c1)[nH]c1c2cc[n+]2ccccc12` [Compound 13-9-1, 12H-indolo[2,3-a]quinolizin-5-ium], the “Growth Inhibition” value in data set [1] is reported as “Yes”. Also, the IC50 in data set [1] (Homo sapiens, after any period of treatment, read-out: Minimum Dose (IC50) needed to decrease growth 50% or greater versus control) amounted to 5 µM. Further, the “tolerability of intravenous administration” value in data set [2] is listed as “well-tolerated”. The “growth of tumors formed” value is “reduced the growth of tumors” in data set [3] (setting [7]); “significantly inhibited the growth” in data set [3] (1×10^6 PANC-1 cells pretreated at 10 μM, listed as De-ethylflavopereirine); “not significantly different” in data set [3] (2×10^4 PANC-1 cells pretreated at 10 μM); “significantly reduced tumor growth” in data set [3] (setting [8]); “slowed the growth rate” in data set [3] (2×10^5 PANC-1 cells pretreated at 10 μM, listed as De-ethylflavopereirine). For the same compound, in data set [3] (setting [7]), the “time of tumor formation” value is reported as “no effect”. Also, the “tumor formation rate (mice that formed tumors)” value amounted to 80% in data set [3] (setting [7]); 20% in data set [3] (2×10^4 PANC-1 cells pretreated at 10 μM, 38 days); 60% in data set [3] (setting [8]). Further, the “time of peak plasma concentration” value in data set [4] (intravenous at 20 mg/kg) is on record as “approximately 2 hours”; in data set [4] (oral at 200 mg/kg (sentence also lists oral at 100 mg/kg)), “approximately 4 hours”. Besides, the “CD24+/CD44+/EpCam+ (triple positive) cell population” value in data set [5] (24 hr, listed as De-ethylflavopereirine) is reported as “Reduction”; in data set [5] (24 hr, listed as de-ethylflavopereirine), “reduced the CD24^+/CD44^+/EpCam^+ cell population”; in data set [5] (48 hr), “reduced the CD24^+/CD44^+/EpCam^+ cell population”. The cell viability result in data set [6] is reported as “dose-dependent decrease in cancer cell viability”.
